Test results published in PMC5650142, “GPR40 partial agonists and AgoPAMs: Differentiating effects on glucose and hormonal secretions in the rodent” (PLoS ONE, 2017).

Tests used:
rat GPR40 = target: T1, rat GPR40 (Rattus norvegicus, UniProt Q8K3T4); test: Rat GPR40 IP1 accumulation assay; format: cell-based
T1 construct: expressed in transfected cells; host or cells: CHO-K1 (methods)
Protocol: (§1) Stable cell lines expressing human GPR40 (hGPR40/HEK293), mouse GPR40 (mGPR40/CHO-K1), and rat GPR40 (rGPR40/CHO-K1) were cultured in DMEM media supplemented with 10% FBS, glutamine, non-essential amino acids, and penicillin/streptomycin. hGPR40/HEK293 & mGPR40/CHO-K1 cell media was supplemented with […] G418 (Life Technologies), while rGPR40/CHO-K1 cells were grown in […] blasticidin plus […] hygromycin (Life Technologies). Cell stocks were maintained and grown in a sub-confluent state using standard cell culture procedures. The day before the experiment, the cells were harvested with non-enzymatic cell dissociation buffer and re-suspended in DMEM supplemented with 10% FBS, glutamine, non-essential amino acids, penicillin/streptomycin at 0.15, 0.2 and 0.3 million cells per ml for human, mouse, and rat GPR40, respectively. […] The seeded plates were incubated overnight at 37 C.
(§2) On the day of the experiment, the growth media was removed from the assay by gently patting the assay plates on an absorbent sheet and 10 μl of IP1 stimulation buffer (Cis Bio IP-one Tb HTRF kit) supplemented with 50 mM LiCl is added to each well. Test compounds dissolved in DMSO were serially diluted in ½ log increments starting from 2 mM or 0.2 mM and 50 nl of the compound dilution was acoustically added to each well (final starting concentration 10 μM or 1 μM). Plates were then incubated for 60 minutes at room temperature and 10 μl of detection buffer (prepared as described in the Tb kit) is added to each well. The plates are then incubated one additional hour at room temperature. […] For each assay, a standard curve plate in which IP1 is titrated is also included. […] The percent activity at each concentration of test compound is determined using 0% activation (basal activity) determined in those wells that contain DMSO alone, while 100% activity is determined in wells that contained a concentration of a partial allosteric agonist know to activate GPR40. The % activity is then plotted versus the concentration of test compound and the dose response curve fitted to a standard 4-parameter non-linear regression model using a custom in-house developed software package (Merck & Co., Inc., MRL, Kenilworth, NJ, USA). Maximal % activity and EC50 are then determined for each test compound.

mouse GPR40 = target: T2, mouse GPR40 (Mus musculus, UniProt Q76JU9); test: Mouse GPR40 IP1 accumulation assay; format: cell-based
T2 construct: expressed in transfected cells; host or cells: CHO-K1 (methods)
Protocol: as §1, §2

human GPR40 [1] = target: T3, human GPR40 (Homo sapiens, UniProt O14842); test: Human GPR40 IP1 accumulation assay; format: cell-based; design: expressed in transfected cells
Protocol: as §1, §2

human GPR40 [2] = target: T3, human GPR40; test: GPR40 binding assay, partial agonist tracer [3H]L358; design: expressed in transfected cells; host or cells: CHO / CHO-K1 cells, membrane preparation
Protocol: Two small molecule tracers, the partial agonist [3H][…] and the AgoPAM [3H]25, are used to measure compound affinity at each site as described previously. Because of the allosteric coupling of the two sites and the nature of the assay, addition of a compound will either displace (binds to same site) or augment (binds to allosterically coupled site) radiotracer. Membranes expressing GPR40 were prepared from CHO cells stably expressing human GPR40. […] Sigma P8830) and were homogenized in 50 ml aliquots with a motor-driven glass Dounce homogenizer, 15 strokes at 1900 rpm on wet ice, repeating once. Homogenates were centrifuged at 2200 rpm for 10 min at 4°C. Supernatants were carefully removed and pooled. Homogenization and centrifugation were repeated until the debris pellet was translucent to maximize membrane recovery. Supernatants were then centrifuged at […] rpm for 20 min. at 4°C. […] Protein concentration was determined by Pierce BCA kit. […] The beads and membrane mixture is then vigorously mixed for 30 minutes at room temperature prior to addition to the assay. […] Next, 15 μl of the radioligand and 35 μl of the beads/membranes solution is added to each well. The assay plates are then sealed and incubated for 30 minutes at room temperature on an orbital shaker. The plates are allowed to settle for 16 hours and then counted on a TopCount scintillation counter (PE). […] Maximal % bound and IC50 are then determined for each test compound. 5 μg/well membrane together with 200 μg/well of PVT WGA SPA beads (GE #RPNG-0001) were suspended in a white 96 well plate with a final concentration of 50 μl/well in assay buffer (50 mM Tris, 10 mM MgCl2, and 2 mM EDTA). […] The plate is briefly mixed and incubated for 3-18 h at room temperature, before it is read on a MicroBeta plate counter (Perkin Elmer, MS, USA).

[3] = maximal % activity vs in-house partial agonist control

T3 sequence (O14842 whole entry): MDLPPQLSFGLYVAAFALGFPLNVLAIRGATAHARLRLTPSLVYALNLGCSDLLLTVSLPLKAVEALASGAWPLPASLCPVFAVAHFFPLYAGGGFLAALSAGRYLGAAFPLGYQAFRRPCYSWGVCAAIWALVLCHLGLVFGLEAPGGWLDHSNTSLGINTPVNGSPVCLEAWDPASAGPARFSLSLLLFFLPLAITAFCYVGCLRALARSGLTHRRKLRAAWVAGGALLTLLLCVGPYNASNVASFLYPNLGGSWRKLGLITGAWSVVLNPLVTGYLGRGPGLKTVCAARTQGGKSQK
T1 sequence (Q8K3T4 whole entry): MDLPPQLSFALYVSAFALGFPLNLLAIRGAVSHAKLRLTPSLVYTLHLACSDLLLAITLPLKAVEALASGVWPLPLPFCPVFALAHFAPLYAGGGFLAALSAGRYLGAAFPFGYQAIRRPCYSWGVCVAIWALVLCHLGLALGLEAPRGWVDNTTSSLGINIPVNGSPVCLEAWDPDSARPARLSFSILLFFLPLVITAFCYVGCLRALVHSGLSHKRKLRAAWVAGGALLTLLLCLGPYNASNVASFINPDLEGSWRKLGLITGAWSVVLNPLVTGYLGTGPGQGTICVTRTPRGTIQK
T2 sequence (Q76JU9 whole entry): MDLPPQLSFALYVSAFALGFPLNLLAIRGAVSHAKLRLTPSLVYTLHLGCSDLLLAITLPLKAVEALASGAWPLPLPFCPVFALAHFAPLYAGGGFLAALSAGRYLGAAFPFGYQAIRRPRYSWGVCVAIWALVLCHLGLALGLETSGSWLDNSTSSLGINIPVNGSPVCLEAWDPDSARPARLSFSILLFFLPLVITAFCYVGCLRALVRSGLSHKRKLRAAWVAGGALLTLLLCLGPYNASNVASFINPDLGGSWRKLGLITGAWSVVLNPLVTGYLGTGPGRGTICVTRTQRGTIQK

SMILES: O=C1NC(=O)C(C2CCOc3cc(Oc4ccc(C(F)(F)F)cc4Cl)ccc32)S1 (stereo not drawn) [MK-2305, reference compound]
- Efficacy (% Activation), Rat (rat GPR40; [3]): (155%)
- EC50 (rat GPR40; mean ± SD, n = 2–20, IP accumulation, read-out: Potency [EC50, nM] ± SD, Rat): 5.2 ± 2.5 nM
- Efficacy (% Activation), Mouse (mouse GPR40; [3]): (157%)
- EC50 (mouse GPR40; mean ± SD, n = 2–20, IP accumulation, read-out: Potency [EC50, nM] ± SD, Mouse): 2.6 ± 0.8 nM
- Efficacy (% Activation), Human (human GPR40 [1]; [3]): (85%)
- EC50 (human GPR40 [1]; mean ± SD, n = 2–20, IP accumulation, read-out: Potency [EC50, nM] ± SD, Human): 24 ± 13 nM
- Binding Results, % in parentheses, [^3H]L-358 (human GPR40 [2]; WT human GPR40, maximal % (not defined)): (108%)
- IC50 (human GPR40 [2]; WT human GPR40, n = 2–13, read-out: Binding Results [IC50, nM], [^3H]L-358): 17 ± 4.7 nM
- binding of [^3H]L358 (human GPR40 [2]; human GPR40 membranes, competition binding): displace
